Entries after “also recorded” stand apart in the source; their conditions may differ.
What was measured:
[1] = system: adenosine triphosphate resynthesis; details: in muscle, creatine phosphate versus glycogen; cited from earlier work
[2] = endogenous level; cited from earlier work
[3] = physchem; details: weakly alkaline water
[4] = acidic conditions / stomach; cited from earlier work

creatine remaining, by HPLC (slightly alkaline water) | creatinine produced, by HPLC (weakly alkaline water) | degraded [3] [%] | Structure (SMILES) | rate of ATP resynthesis compared to glycogen [1] | normal creatine concentration in the bloodstream [2] | conversion to creatinine under acidic conditions [4]
– | – | – | CN(CC(=O)O)C(=N)NP(=O)(O)O [Creatine phosphate] | nearly twice the rate | – | –
about 85% | about 15% | ~15 | CN(CC(=O)O)C(=N)N [creatine, N-(aminoiminomethyl)-N-methylglycine] | – | about 50 μmol per liter of blood | formation of creatinine from free creatine is complete; also recorded: rapidly converts to creatinine by the acidic conditions in the stomach

— US5973005A, “Aqueous creatine solution and process of producing a stable, bioavailable aqueous creatine solution” (priority 1998, dated 1999)
